Values of other authors as cited in patent publication US20030108586A1, “Method of long-term reversible contraception for animals” (priority 2001, published 2003).
Where two headings read alike, the source gives them in different places.

## C[C@@H]1CC2=CC(=O)CC[C@@H]2[C@H]2CC[C@@]3(C)[C@@H](CC[C@]3(C)O)[C@@H]21 [Mibolerone™, Mibolerone]
bitches
  adverse effects: clitoral hypertrophy

## CC(=O)O[C@]1(C(C)=O)CC[C@H]2[C@@H]3C=C(C)C4=CC(=O)CC[C@]4(C)[C@H]3CC[C@@]21C [Ovabant™, megestrol acetate]
Synthetic progestins
  adverse effects: development of mammary tumors as well as endometrial hyperplasia
